# ChEMBL document CHEMBL6087386, “Radioprotective effectiveness of a novel delta-tocotrienol prodrug on mouse hematopoietic system against 60Co gamma-ray irradiation through inducing granulocyte-colony stimulating factor production” (Eur J Med Chem, 2024)
# The source made the active and inactive calls. The calls are words filed in the database; no cut-off is given here.
# Legend:
# Mus musculus [1] = assay: Radioprotective activity in C57BL/6J mouse assessed as increase in platelets count at 100 mg/kg, sc preincubated with compound for 24 hrs followed by total body irradiation with 6.5 Gy and measured after 30 days; assay type: functional, organism-based; conditions: time 31.0 day
# [2] = MRT (0 to infinity) in ICR mouse at 100 mg/kg, iv measured upto 24 hrs by LC-MS/MS analysis; assay type: ADME, organism-based; conditions: in vivo
# [3] = Cmax in ICR mouse at 100 mg/kg, iv measured upto 24 hrs by LC-MS/MS analysis; assay type: ADME, organism-based; conditions: in vivo
# Mus musculus [4] = assay: Radioprotective activity in C57BL/6J mouse assessed as increase in RBC count at 100 mg/kg, sc preincubated with compound for 24 hrs followed by total body irradiation with 6.5 Gy and measured after 30 days; assay type: functional, organism-based; conditions: time 31.0 day
# Mus musculus [5] = assay: Radioprotective activity in C57BL/6J mouse assessed as increase in multipotent progenitor frequency in LSK compartment at 100 mg/kg, sc preincubated with compound for 24 hrs followed by total body irradiation with 6.5 Gy and measured after 30 days; assay type: functional, organism-based; conditions: time 31.0 day
# Mus musculus [6] = assay: Radioprotective activity in C57BL/6J mouse assessed as survival rate at 100 mg/kg, sc preincubated with compound for 24 hrs followed by total body irradiation with 8.5 Gy and measured after 30 days by Kaplan-meier plot analysis; assay type: functional; conditions: time 31 day
# Mus musculus [7] = assay: Radioprotective activity in C57BL/6J mouse assessed as survival rate at 100 mg/kg, sc preincubated with compound for 24 hrs followed by total body irradiation with 8.5 Gy and measured after 20 days by Kaplan-meier plot analysis; assay type: functional; conditions: light or radiation study, 504 h, time 21 day
# Mus musculus [8] = assay: Radioprotective activity in C57BL/6J mouse assessed as increase in platelet count at 100 mg/kg, sc preincubated with compound for 24 hrs followed by total body irradiation with 6.5 Gy and measured on day 10; assay type: functional, organism-based; conditions: time 11.0 day
# [9] = Tmax in ICR mouse at 100 mg/kg, iv measured upto 24 hrs by LC-MS/MS analysis; assay type: ADME, organism-based; conditions: in vivo
# Mus musculus [10] = assay: Radioprotective activity in C57BL/6J mouse assessed as increase in number of total bone marrow cells at 100 mg/kg, sc preincubated with compound for 24 hrs followed by total body irradiation with 6.5 Gy and measured after 30 days; assay type: functional, organism-based; conditions: time 31.0 day
# Mus musculus [11] = assay: Radioprotective activity in C57BL/6J mouse assessed as increase in neutrophils at 100 mg/kg, sc preincubated with compound for 24 hrs followed by total body irradiation with 6.5 Gy and measured on day 7; assay type: functional, organism-based; conditions: time 8.0 day
# Mus musculus [12] = assay: Radioprotective activity in C57BL/6J mouse assessed as increase in long term hematopoietic stem cell frequency in LSK compartment at 100 mg/kg, sc preincubated with compound for 24 hrs followed by total body irradiation with 6.5 Gy and measured after 30 days; assay type: functional, organism-based; conditions: time 31.0 day
# [13] = Cmax in ICR mouse at 100 mg/kg, sc measured upto 24 hrs by LC-MS/MS analysis; assay type: ADME, organism-based; conditions: in vivo
# [14] = Half life in ICR mouse at 100 mg/kg, iv measured upto 24 hrs by LC-MS/MS analysis; assay type: ADME, organism-based; conditions: in vivo
# Mus musculus [15] = assay: Induction of G-CSF production in C57BL/6J mouse model at 100 mg/kg, sc measured for 24 hrs by ELISA analysis; assay type: functional, organism-based
# [16] = MRT (0 to t) in ICR mouse at 100 mg/kg, iv measured upto 24 hrs by LC-MS/MS analysis; assay type: ADME, organism-based; conditions: in vivo
# Mus musculus [17] = assay: Radioprotective activity in C57BL/6J mouse assessed as increase in spleen coefficient at 100 mg/kg, sc preincubated with compound for 24 hrs followed by total body irradiation with 6.5 Gy and measured after 10 days; assay type: functional, organism-based; conditions: time 11.0 day
# Mus musculus [18] = assay: Radioprotective activity in C57BL/6J mouse assessed as increase in number of LK cells at 100 mg/kg, sc preincubated with compound for 24 hrs followed by total body irradiation with 6.5 Gy and measured after 30 days; assay type: functional, organism-based; conditions: time 31.0 day
# [19] = Tmax in ICR mouse at 100 mg/kg, sc measured upto 24 hrs by LC-MS/MS analysis; assay type: ADME, organism-based; conditions: in vivo
# [20] = Bioavailability in ICR mouse at 100 mg/kg, sc measured upto 24 hrs by LC-MS/MS analysis; assay type: ADME, organism-based; conditions: in vivo
# Mus musculus [21] = assay: Radioprotective activity in C57BL/6J mouse assessed as increase in WBC count at 100 mg/kg, sc preincubated with compound for 24 hrs followed by total body irradiation with 6.5 Gy and measured after 30 days; assay type: functional, organism-based; conditions: time 31.0 day
# [22] = Volume of distribution at steady state in ICR mouse at 100 mg/kg, iv measured upto 24 hrs by LC-MS/MS analysis; assay type: ADME, organism-based; conditions: in vivo
# [23] = MRT (0 to t) in ICR mouse at 100 mg/kg, sc measured upto 24 hrs by LC-MS/MS analysis; assay type: ADME, organism-based; conditions: in vivo
# [24] = Clearance in ICR mouse at 100 mg/kg, iv measured upto 24 hrs by LC-MS/MS analysis; assay type: ADME, organism-based; conditions: in vivo
# Mus musculus [25] = assay: Radioprotective activity in C57BL/6J mouse assessed as splenomegaly at 100 mg/kg, sc preincubated with compound for 24 hrs followed by total body irradiation with 6.5 Gy and measured after 10 days; assay type: functional, organism-based; conditions: time 11.0 day
# Mus musculus [26] = assay: Radioprotective activity in C57BL/6J mouse assessed as increase in number of LSK cells at 100 mg/kg, sc preincubated with compound for 24 hrs followed by total body irradiation with 6.5 Gy and measured after 30 days; assay type: functional, organism-based; conditions: time 31.0 day
# Mus musculus [27] = assay: Radioprotective activity in C57BL/6J mouse assessed as increase in RBC count at 100 mg/kg, sc preincubated with compound for 24 hrs followed by total body irradiation with 6.5 Gy and measured on day 14; assay type: functional, organism-based; conditions: time 15.0 day
# Mus musculus [28] = assay: Radioprotective activity in C57BL/6J mouse assessed as increase in neutrophils at 100 mg/kg, sc preincubated with compound for 24 hrs followed by total body irradiation with 6.5 Gy and measured after 30 days; assay type: functional, organism-based; conditions: time 31.0 day
# [29] = Stability in C57BL/6J mouse plasma assessed as half-life; assay type: ADME, cell-free
# Mus musculus [30] = assay: Radioprotective activity in C57BL/6J mouse assessed as effect on LT-HSC number at 100 mg/kg, sc preincubated with compound for 24 hrs followed by total body irradiation with 6.5 Gy and measured after 30 days; assay type: functional, organism-based; conditions: time 31.0 day
# Mus musculus [31] = assay: Radioprotective activity in C57BL/6J mouse assessed as […] in survival rate at 100 mg/kg, sc preincubated with compound for 24 hrs followed by total body irradiation with 9.5 Gy and measured after 30 days by Kaplan-meier plot analysis; assay type: functional, organism-based; conditions: time 31.0 day
# Mus musculus [32] = assay: Radioprotective activity in C57BL/6J mouse assessed as increase in G-CSF production in serum at 100 mg/kg, sc; assay type: functional, organism-based; conditions: time 24.0 hrs
# Mus musculus [33] = assay: Radioprotective activity in C57BL/6J mouse assessed as fold increase in total number of splenic nucleated cells at 100 mg/kg, sc preincubated with compound for 24 hrs followed by total body irradiation with 6.5 Gy and measured after 10 days; assay type: functional; conditions: time 11 day
# Mus musculus [34] = assay: Radioprotective activity in C57BL/6J mouse assessed as increase in G-CSF production in serum at 100 mg/kg, sc measured for 6 to 24 hrs; assay type: functional, organism-based; conditions: time 6-24 hrs
# Mus musculus [35] = assay: Radioprotective activity in C57BL/6J mouse assessed as increase in percentage of LSK cells at 100 mg/kg, sc preincubated with compound for 24 hrs followed by total body irradiation with 6.5 Gy and measured after 30 days; assay type: functional, organism-based; conditions: time 31.0 day
# Mus musculus [36] = assay: Radioprotective activity in C57BL/6J mouse assessed as increase in G-CSF production in serum at 100 mg/kg, sc measured for 72 hrs; assay type: functional, organism-based
# Mus musculus [37] = assay: Radioprotective activity in C57BL/6J mouse assessed as increase in percentage of LK cells at 100 mg/kg, sc preincubated with compound for 24 hrs followed by total body irradiation with 6.5 Gy and measured after 30 days; assay type: functional, organism-based; conditions: time 31.0 day
# [38] = Stability in C57BL/6J mouse whole blood assessed as half-life; assay type: ADME, tissue-based
# Mus musculus [39] = assay: Radioprotective activity in C57BL/6J mouse assessed as survival rate at 100 mg/kg, sc preincubated with compound for 24 hrs followed by total body irradiation with 9.5 Gy and measured after 30 days by Kaplan-meier plot analysis; assay type: functional; conditions: light or radiation study, 744 h, time 31 day
# [40] = Stability in […] human plasma assessed as half-life; assay type: ADME, cell-free
# Mus musculus [41] = assay: Radioprotective activity in C57BL/6J mouse assessed as increase in MPP number at 100 mg/kg, sc preincubated with compound for 24 hrs followed by total body irradiation with 6.5 Gy and measured after 30 days; assay type: functional, organism-based; conditions: time 31.0 day
# Mus musculus [42] = assay: Radioprotective activity in C57BL/6J mouse assessed as increase in ST-HSC number at 100 mg/kg, sc preincubated with compound for 24 hrs followed by total body irradiation with 6.5 Gy and measured after 30 days; assay type: functional, organism-based; conditions: time 31.0 day
# Mus musculus [43] = assay: Radioprotective activity in C57BL/6J mouse assessed as effect on splenic LT-HSCs number at 100 mg/kg, sc preincubated with compound for 24 hrs followed by total body irradiation with 6.5 Gy and measured after 10 days; assay type: functional, organism-based; conditions: time 11.0 day
# [44] = Drug concentration in C57BL/6J mouse plasma at 100 mg/kg, sc measured after 24 hrs; assay type: ADME, organism-based; conditions: in vivo
structure (smiles),measurement,setting,value
CC(C)=CCC/C(C)=C/CC/C(C)=C/CC[C@]1(C)CCc2cc(OCCO)cc(C)c2O1,Activity,Mus musculus [1],Active
same,MRT inf,[2]; ICR,0.92 h
same,Cmax,[3],8.15 ng/mL
same,Activity,Mus musculus [4],Active
same,Activity,Mus musculus [5],Active
same,Activity,Mus musculus [6],100%
same,survival at 100 mg/kg,Mus musculus [7],70%
same,Activity,Mus musculus [8],Active
same,Tmax,[9],17.3 h
same,Activity,Mus musculus [10],Active
same,Activity,Mus musculus [11],Active
same,Activity,Mus musculus [12],Active
same,Cmax,[13],1.14 ng/mL
same,half-life,[14],7.56 h
same,Activity,Mus musculus [15],Active
same,MRT last at 24 h,[16],0.67 h
same,Activity,Mus musculus [17],Active
same,Activity,Mus musculus [18],Active
same,Tmax,[19],0.67 h
same,F,[20],8.3%
same,Activity,Mus musculus [21],Active
same,Vd,"[22]; ICR, read-out: Vdss",0.351 L/kg
same,MRT last at 24 h,[23],12 h
same,CL,[24],6.3815 mL/min/kg
same,Activity,Mus musculus [25],Active
same,Activity,Mus musculus [26],Active
same,Activity,Mus musculus [27],Active
same,Activity,Mus musculus [28],Active
CC(C)=CCC/C(C)=C/CC/C(C)=C/CC[C@]1(C)CCc2cc(OC(=O)CCC(=O)O)cc(C)c2O1,Activity,Mus musculus [1],Active
same,MRT,"[2]; iv, 100 mg/kg, 24 h",3.47 h
same,Cmax,[3],5.15 ng/mL
same,Activity,Mus musculus [4],Active
same,Activity,Mus musculus [5],Active
same,survival at 100 mg/kg,"Mus musculus [6]; Mus musculus, C57BL/6J, light or radiation study, 744 h",90%
same,half-life,[29],3.73 h
same,survival at 100 mg/kg,Mus musculus [7],70%
same,Activity,Mus musculus [8],Active
same,Tmax,[9],0.083 h
same,Activity,Mus musculus [10],Active
same,Activity,Mus musculus [30],inactive
same,Activity,Mus musculus [11],Active
same,Activity,Mus musculus [31],inactive
same,Activity,Mus musculus [12],Active
same,Cmax,[13],2.02 ng/mL
same,half-life,[14],10.4 h
same,Activity,Mus musculus [15],Active
same,Activity,Mus musculus [32],Time-dependent-effect
same,MRT last at 24 h,[16],1.36 h
same,fold change (FC),Mus musculus [33],~2.5
same,Activity,Mus musculus [17],Active
same,Activity,Mus musculus [34],Active
same,Activity,Mus musculus [35],Active
same,Tmax,[19],0.083 h
same,Activity,Mus musculus [36],Active
same,Activity,Mus musculus [37],Active
same,F,[20],13.86%
same,Activity,Mus musculus [21],Active
same,Vdss,"[22]; iv, 100 mg/kg, 24 h",0.33658 L/kg
same,half-life,[38],9.3 min
same,survival at 100 mg/kg,Mus musculus [39],90%
same,half-life,[40],1.92 h
same,MRT last at 24 h,[23],11.9 h
same,CL,[24],3.7553 mL/min/kg
same,Activity,Mus musculus [25],Active
same,Activity,Mus musculus [41],Active
same,Activity,Mus musculus [42],Active
same,Activity,Mus musculus [27],Active
same,Activity,Mus musculus [43],Active
same,Drug uptake,[44],Active
same,Activity,Mus musculus [28],Active
